Data as given in ChEMBL document CHEMBL1201862, “PubChem BioAssay data set” (2004).
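Protocol summary: plate cells (96-well), add compound at 5 concentrations, incubate 48 h, interpolate endpoints linearly. GI50: concentration for 50% inhibition of growth.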 Calls of active or inactive are those of the source. Cut-off read from the data, not from the text of the source: active = GI50 up to about 1.1 µM and inactive = higher.

Key:
Assay in all cases: NCI tumour cell line growth inhibition, 48 h
786-0 = test system: 786-0
A498 = test system: A498
A549 = test system: A549
ACHN = test system: ACHN
CCRF-CEM = test system: CCRF-CEM
COLO 205 = test system: COLO 205
DLD-1 = test system: DLD-1
DMS-114 = test system: DMS-114
DMS-273 = test system: DMS-273
EKVX = test system: EKVX
HCC 2998 = test system: HCC 2998
HCT-116 = test system: HCT-116
HCT-15 = test system: HCT-15
HL-60 = test system: HL-60
HOP-18 = test system: HOP-18
HOP-62 = test system: HOP-62
HOP-92 = test system: HOP-92
HT-29 = test system: HT-29
IGROV-1 = test system: IGROV-1
K562 = test system: K562
KM-20L2 = test system: KM-20L2
KM12 = test system: KM12
LOX IMVI = test system: LOX IMVI
LXFL 529 = test system: LXFL 529
M14 = test system: M14
M19-MEL = test system: M19-MEL
MOLT-4 = test system: MOLT-4
Malme-3M = test system: Malme-3M
NCI-H226 = test system: NCI-H226
NCI-H23 = test system: NCI-H23
NCI-H460 = test system: NCI-H460
NCI-H522 = test system: NCI-H522
OVCAR-3 = test system: OVCAR-3
OVCAR-4 = test system: OVCAR-4
OVCAR-5 = test system: OVCAR-5
OVCAR-8 = test system: OVCAR-8
RPMI-8226 = test system: RPMI-8226
RXF 393 = test system: RXF 393
SF-268 = test system: SF-268
SF-295 = test system: SF-295
SF-539 = test system: SF-539
SK-MEL-28 = test system: SK-MEL-28
SK-MEL-2 = test system: SK-MEL-2
SK-MEL-5 = test system: SK-MEL-5
SK-OV-3 = test system: SK-OV-3
SN12C = test system: SN12C
SNB-19 = test system: SNB-19
SNB-75 = test system: SNB-75
SNB-78 = test system: SNB-78
SR = test system: SR
SW-620 = test system: SW-620
TK-10 = test system: TK-10
U-251 = test system: U-251
UACC-257 = test system: UACC-257
UACC-62 = test system: UACC-62
UO-31 = test system: UO-31
XF498 = test system: XF498
CAKI-1 = test system: CAKI-1

In the case of `O=C1/C(=C/c2ccccc2)CN(C(=O)Oc2ccc(Cl)cc2)C/C1=C\c1ccccc1`, the GI50 (786-0) is reported as 1.96 µM (inactive), the GI50 (A498) is reported as 2.11 µM (inactive) and the GI50 (A549) is reported as 9.33 µM (inactive). For the same compound, the GI50 (ACHN) was 3.03 µM (inactive), the GI50 (CCRF-CEM) was 1.55 µM (inactive) and the GI50 (COLO 205) was 3.1 µM (inactive). The GI50 (DLD-1) was 1.11 µM (active), the GI50 (DMS-114) was 1.79 µM (inactive) and the GI50 (DMS-273) was 1.83 µM (inactive). For the same compound, the GI50 (EKVX) was 10 µM (inactive), the GI50 (HCC 2998) was 1.51 µM (inactive) and the GI50 (HCT-116) was 0.239 µM (active). The GI50 (HCT-15) was 1.17 µM, the GI50 (HL-60) was 0.871 µM (active) and the GI50 (HOP-18) was 13.1 µM (inactive). The GI50 (HOP-62) was 10 µM (inactive), the GI50 (HOP-92) was 21.8 µM (inactive) and the GI50 (HT-29) was 1.14 µM (inactive). The GI50 (IGROV-1) was 3.05 µM (inactive), the GI50 (K562) was 1.76 µM (inactive) and the GI50 (KM-20L2) was 2.71 µM (inactive). The GI50 (KM12) was 1.49 µM (inactive), the GI50 (LOX IMVI) was 0.635 µM (active) and the GI50 (LXFL 529) was 1.72 µM (inactive). The GI50 (M14) was 1.53 µM (inactive), the GI50 (M19-MEL) was 1.12 µM (active) and the GI50 (MOLT-4) was 2.65 µM (inactive). The GI50 (Malme-3M) was 11.3 µM (inactive), the GI50 (NCI-H226) was 5.74 µM (inactive) and the GI50 (NCI-H23) was 3.22 µM (inactive). The GI50 (NCI-H460) was 2.44 µM (inactive), the GI50 (NCI-H522) was 2.25 µM (inactive) and the GI50 (OVCAR-3) was 3.42 µM (inactive). For the same compound, the GI50 (OVCAR-4) was 0.887 µM (active), the GI50 (OVCAR-5) was 10.9 µM (inactive) and the GI50 (OVCAR-8) was 1.65 µM (inactive). The GI50 (RPMI-8226) was 0.0957 µM (active), the GI50 (RXF 393) was 2.17 µM (inactive) and the GI50 (SF-268) was 2.99 µM (inactive). For the same compound, the GI50 (SF-295) was 2.23 µM (inactive), the GI50 (SF-539) was 2.36 µM (inactive) and the GI50 (SK-MEL-28) was 2.1 µM (inactive). The GI50 (SK-MEL-2) was 11.5 µM (inactive), the GI50 (SK-MEL-5) was 1.68 µM (inactive) and the GI50 (SK-OV-3) was 7.13 µM (inactive). For the same compound, the GI50 (SN12C) was 1.84 µM (inactive), the GI50 (SNB-19) was 3.31 µM (inactive) and the GI50 (SNB-75) was 4.24 µM (inactive). The GI50 (SNB-78) was 2.96 µM (inactive), the GI50 (SR) was 1.32 µM (inactive) and the GI50 (SW-620) was 1.22 µM (inactive). For the same compound, the GI50 (TK-10) was 5.21 µM (inactive), the GI50 (U-251) was 1.53 µM (inactive) and the GI50 (UACC-257) was 1.7 µM (inactive). For the same compound, the GI50 (UACC-62) was 2.31 µM (inactive), the GI50 (UO-31) was 4.75 µM (inactive) and the GI50 (XF498) was 2.29 µM (inactive).

`Cc1nc(Nc2ccccc2)sc1C(=O)NNC(N)=O` was tested, and the GI50 (786-0) was > 100 µM (inactive), the GI50 (A498) was 46.9 µM (inactive) and the GI50 (A549) was > 100 µM (inactive). For the same compound, the GI50 (ACHN) was > 100 µM (inactive), the GI50 (CAKI-1) was > 100 µM (inactive) and the GI50 (CCRF-CEM) was > 100 µM (inactive). For the same compound, the GI50 (COLO 205) was > 100 µM (inactive), the GI50 (DLD-1) was > 100 µM (inactive) and the GI50 (DMS-114) was 84.5 µM (inactive). For the same compound, the GI50 (DMS-273) was > 100 µM (inactive), the GI50 (EKVX) was 55.6 µM (inactive) and the GI50 (HCC 2998) was > 100 µM (inactive). For the same compound, the GI50 (HCT-116) was > 100 µM (inactive), the GI50 (HL-60) was > 100 µM (inactive) and the GI50 (HOP-18) was > 100 µM (inactive). The GI50 (HOP-62) was 49.8 µM (inactive), the GI50 (HOP-92) was 64.4 µM (inactive) and the GI50 (IGROV-1) was > 100 µM (inactive). For the same compound, the GI50 (K562) was > 100 µM (inactive), the GI50 (KM-20L2) was > 100 µM (inactive) and the GI50 (KM12) was > 100 µM (inactive). For the same compound, the GI50 (LOX IMVI) was > 100 µM (inactive), the GI50 (LXFL 529) was > 100 µM (inactive) and the GI50 (M14) was > 100 µM (inactive). The GI50 (M19-MEL) was > 100 µM (inactive), the GI50 (MOLT-4) was > 100 µM (inactive) and the GI50 (Malme-3M) was > 100 µM (inactive). For the same compound, the GI50 (NCI-H226) was > 100 µM (inactive), the GI50 (NCI-H23) was > 100 µM (inactive) and the GI50 (NCI-H460) was > 100 µM (inactive). For the same compound, the GI50 (NCI-H522) was > 100 µM (inactive), the GI50 (OVCAR-3) was > 100 µM (inactive) and the GI50 (OVCAR-4) was > 100 µM (inactive). For the same compound, the GI50 (OVCAR-5) was > 100 µM (inactive), the GI50 (OVCAR-8) was > 100 µM (inactive) and the GI50 (RPMI-8226) was > 100 µM (inactive). The GI50 (RXF 393) was 29.2 µM (inactive), the GI50 (SF-268) was > 100 µM (inactive) and the GI50 (SF-295) was > 100 µM (inactive). The GI50 (SF-539) was > 100 µM (inactive), the GI50 (SK-MEL-28) was > 100 µM (inactive) and the GI50 (SK-MEL-2) was > 100 µM (inactive). For the same compound, the GI50 (SK-MEL-5) was > 100 µM (inactive), the GI50 (SK-OV-3) was > 100 µM (inactive) and the GI50 (SN12C) was > 100 µM (inactive). The GI50 (SNB-19) was > 100 µM (inactive), the GI50 (SNB-75) was 29.6 µM (inactive) and the GI50 (SNB-78) was > 100 µM (inactive). The GI50 (SW-620) was > 100 µM (inactive), the GI50 (TK-10) was > 100 µM (inactive) and the GI50 (U-251) was 99.3 µM (inactive). The GI50 (UACC-257) was 27.4 µM (inactive), the GI50 (UACC-62) was > 100 µM (inactive) and the GI50 (UO-31) was > 100 µM (inactive). The GI50 (XF498) was > 100 µM (inactive).
